Measurements as given in patent US20230322805A1, “NOVEL PYRIMIDODIAZEPINE DERIVATIVES OR USES THEREOF” (SPARK BIOPHARMA, INC., priority 2020, published 2023).

Tested on: TBI mouse model
Test: Controlled cortical impact TBI mouse model
Format: in vivo
Experimental: CD-1 (ICR) male mice (2-3 months old, 25-35 g body weight; DBL, Korea) were used in the TBI study. […] All mice were fed water and food ad libitum. In order to avoid and minimize transport-related stress, experiments were initiated after a period of one week following transport to allow the animals to acclimatize to environmental conditions.
An experimental controlled cortical impact (CCI) model for TBI was performed as follows. Using an isoflurane vaporizer (VetEquip), the mouse was deeply anesthetized with isoflurane inhaled at 3% in a mixture of 70:30 nitrous oxide and oxygen, and placed in a stereotaxic apparatus. […] An approximately 4 mm incision was made in the right hemisphere using a hand-held drill (midline 2 mm, bregma 1 mm). A controlled cortical impact device (Leica Impact One, Leica Biosystems) was used to accelerate an impact device equipped with a 2 mm flat-tip at a speed of 5 m/sec to a depth of 1.4 mm. […] Traumatic brain injury animal models were randomly generated according to an online randomization tool (randomizer.org). Sham-operated groups performed only craniotomy.
Control mice were intraperitoneally administered with the same volume of vehicle.
Mice were deeply anesthetized by intraperitoneal administration of a mixture of urethane (1.5 g/kg) in saline (0.9% NaCl) at 0.01 mL/g per body weight. The effect of anesthesia was assessed using a toe pinch. Subsequently, saline was perfused into the heart of the mouse, and PBS was mixed with 4% paraformaldehyde and then perfused. Brains were fixed in 4% paraformaldehyde for 1 h and immersed in 30% sucrose for cryoprotection. Then, whole brains were frozen and […] sections were formed on a cryostat microtome (CM1850, Leica) with a thickness of 30 μm.
After washing in PBS, sections were incubated overnight with a mouse monoclonal anti-NeuN antibody (1:500 dilution, Millipore) in PBS containing 0.3% Triton X-100 at 4° C. to assess neuronal loss after TBI. After washing with PBS, sections were incubated in biotinylated anti-mouse IgG (1:250 dilution, Vector) at room temperature for 2 hours […] to detect NeuN antibody and biotinylated anti-rat IgG (1:250 dilution, Vector) to examine the degree of leakage of endogenous immunoglobulin G. Then, the sections were immersed in an avidin-biotin-peroxidase complex (Vector) for 2 hours at room temperature. Between incubations, sections were washed with PBS. […] Immunoreactivity was observed under an Olympus IX70 inverted microscope.
Immunofluorescence labeling was performed according to a conventionally known general immunostaining procedure. […] After washing with PBS, the sections were incubated with each specific type of polyclonal or monoclonal primary antibody with PBS containing 0.3% Triton X-100 overnight at 4° C.
The primary antibodies used in this test are the same as follows: • mouse monoclonal anti-4-hydroxynonenal (4-HNE; diluted 1:500; Alpha Diagnostic International), • mouse monoclonal anti-Tau (Tau5; diluted 1:500; Abcam), • mouse monoclonal anti-phospho Tau (Ser202, Thr205; AT8; diluted 1:200; Invitrogen), • mouse monoclonal anti-PDI (diluted 1:100; Abcam), • rabbit polyclonal anti-ERp57 (diluted 1:100; Abcam), and • goat polyclonal anti-Iba-1 antibody (diluted 1:500; Abcam).
To count NeuN-positive cells, every sixth section was collected posterior to bregma from 1.2 to 2.1 mm at 180 μm intervals. Five coronal sections from each mouse were analyzed using a microscope with a 20×objective. These sections were then coded and provided to a blinded experimenter to count total NeuN-positive cells in hippocampal CA1 and cortex from hippocampal hemispheres. Data were expressed as the average number of NeuN-positive cells per area. To quantify the PDI-, ERp57-, Tau5-, AT8-, and 4HNE- immunofluorescence intensities, five coronal sections were evaluated by a blinded experimenter using ImageJ (National Institute of Health).

[1] = after TBI induction, versus vehicle
[2] = ipsilateral perilesional cortex, 12 and 24 hours after TBI induction

CN(Cc1ccc(Cl)cc1)c1ncnc2c1[C@@H]1OC[C@H](CN2)N1S(=O)(=O)c1ccc([N+](=O)[O-])cc1 [Compound 117]
neurologic severity score (NSS) (1, 4, 24, 48, 72 hours and 7 days after TBI): maintained nerve protection activity | pole climbing test, time to descend the pole [1]: significantly reduced | pole climbing test, time to turn the head downward [1]: significantly reduced | level of microglial activation (ipsilateral hemisphere, after TBI): the activity of microglial cells was improved | total tau and p-tau levels (Tau5, AT8 immunofluorescence) (ipsilateral hippocampal CA1 and cortex, 24 hours after TBI, 5 mg/kg, 2 times a day): these symptoms were improved | Iba-1 levels (neuroinflammation) (ipsilateral hippocampal CA1 and cortex, 72 hours after TBI): could be improved | ER stress and oxidative stress (PDI, ERp57 immunofluorescence) (ipsilateral hippocampal CA1 and cortex, 5 mg/kg, 2 times a day): these symptoms were confirmed | conversion rate from LC3-1 to LC3-II (Western blotting) [2]: the conversion rate from LC3-1 to LC3-II was improved | p62 protein level (Western blotting) [2]: an increase in p62 protein level
